The values that follow are results of earlier work, collected in patent US10092644B2, “Use of fluorinated cyclic dinucleotides as oral vaccine adjuvants” (BROCK UNIVERSITY, priority 2013, dated 2018).

The test system of the series is S. penuemoniae pneumolysin toxid (PdB) or pneumococal surface protection (PspA). The settings on record: mice, interperitoneally, PdB or PspA adjuvanted with c-di-GMP (Chen et al. 2010; Ogunniyi et al. 2008); cited from earlier work.

In the case of `Nc1nc2c(ncn2C2OC3COP(=O)(O)OC4C(COP(=O)(O)OC3C2O)OC(n2cnc3c(=O)[nH]c(N)nc32)C4O)c(=O)[nH]1` (stereo not shown) [c-di-GMP, 3′,5′-cyclic diguanylic acid], the antigen-specific antibody response result was “enhanced”.
